In brackets after ≈: the same amount, converted by molar mass.
How the values were obtained:
Assay type in all cases: cell-based
[1] = test system: Streptococcus pyogenes M808; assay: In vitro antibacterial activity, microbroth dilution method (CLSI method), test bacterium D (erythromycin resistant); conditions: read-out: MIC (minimum inhibitory concentration), test bacterium D
Experimental: (§1) In vitro antibacterial activities of the compounds of the present invention against various test bacteria were measured according to the microbroth dilution method (CLSI method). Among them, the bacteria C, D and E are erythromycin resistant bacteria. The MIC values (minimum inhibitory concentration, μg/ml) for the test bacteria A and B are exemplified in Table 22.

[2] = test system: Streptococcus pneumoniae ATCC700904; assay: In vitro antibacterial activity, microbroth dilution method (CLSI method), test bacterium C (erythromycin resistant); conditions: read-out: MIC (minimum inhibitory concentration), test bacterium C
Experimental: as §1

[3] = test system: Mycoplasma pneumoniae MSC04933; assay: In vitro antibacterial activity, microbroth dilution method (CLSI method), test bacterium E (erythromycin resistant); conditions: read-out: MIC (minimum inhibitory concentration), test bacterium E
Experimental: as §1

[4] = test system: Streptococcus pneumoniae ATCC49619; assay: In vitro antibacterial activity, microbroth dilution method (CLSI method), test bacterium B; conditions: read-out: MIC (minimum inhibitory concentration), test bacterium B
Experimental: as §1

[5] = test system: Haemophilus infuenzae ATCC43095; assay: In vitro antibacterial activity, microbroth dilution method (CLSI method), test bacterium A; conditions: read-out: MIC (minimum inhibitory concentration), test bacterium A
Experimental: as §1

SMILES | MIC [1] [µg/mL] | MIC [2] [µg/mL] | MIC [3] [µg/mL] | MIC [4] [µg/mL] | MIC [5] [µg/mL]
CC[C@H]1OC(=O)[C@H](C)[C@@H](O[C@H]2C[C@@](C)(OC)[C@@](O)(CN(C)CCN(CC)CC)[C@H](C)O2)[C@H](C)[C@@H](O[C@@H]2O[C@H](C)C[C@H](N(C)C)[C@H]2O)[C@@](C)(OC)C[C@@H](C)C(=O)[C@H](C)[C@H]2NC(=O)O[C@@]21C [Example 299] | ≥ 16 | 0.12 to 0.25 (≈ 0.131 to 0.273 µM) | 0.5 to 1 (≈ 0.546 to 1.09 µM) |  | 
CC[C@H]1OC(=O)[C@H](C)[C@@H](O[C@H]2C[C@@](C)(OC)[C@@](O)(CN(C)CCN(C)C)[C@H](C)O2)[C@H](C)[C@@H](O[C@@H]2O[C@H](C)C[C@H](N(C)C)[C@H]2O)[C@@](C)(OC)C[C@@H](C)C(=O)[C@H](C)[C@H]2C(SCCCn3cnc4c(N)ncnc43)C(=O)O[C@@]21C (stereo partly shown) [Example 364] | ≤ 2 | ≤ 0.06 | ≤ 0.25 |  | 
CC[C@H]1OC(=O)[C@H](C)[C@@H](O[C@H]2C[C@@](C)(OC)[C@@](O)(CN(C)CCN(CC)CC)[C@H](C)O2)[C@H](C)[C@@H](O[C@@H]2O[C@H](C)C[C@H](N(C)C)[C@H]2O)[C@@](C)(OC)C[C@@H](C)C(=O)[C@H](C)[C@H]2N(CCN3CCNS3(=O)=O)C(=O)O[C@]12C [Example440] |  |  |  | 0.03 (≈ 0.0282 µM) | 4 (≈ 3.76 µM)
CC[C@H]1OC(=O)[C@H](C)[C@@H](O[C@H]2C[C@@](C)(OC)[C@@](O)(CN(C)CCN(C(C)C)C(C)C)[C@H](C)O2)[C@H](C)[C@@H](O[C@@H]2O[C@H](C)C[C@H](N(C)C)[C@H]2O)[C@@](C)(OC)C[C@@H](C)C(=O)[C@H](C)[C@H]2N(CCNS(C)(=O)=O)C(=O)O[C@]12C [Example 404] | ≤ 2 | 0.12 to 0.25 (≈ 0.113 to 0.235 µM) | ≤ 0.25 |  | 
CC[C@H]1OC(=O)[C@H](C)[C@@H](O[C@H]2C[C@@](C)(OC)[C@@](O)(CN(C)CCN(CC)CC)[C@H](C)O2)[C@H](C)[C@@H](O[C@@H]2O[C@H](C)C[C@H](N(C)C)[C@H]2O)[C@@](C)(OC)C[C@@H](C)C(=NO)[C@H](C)[C@H]2N(CCNS(C)(=O)=O)C(=O)O[C@]12C [Example 334] | 4 to 8 (≈ 3.8 to 7.61 µM) | 0.12 to 0.25 (≈ 0.114 to 0.238 µM) | ≤ 0.25 |  | 
CC[C@H]1OC(=O)[C@H](C)[C@@H](O[C@H]2C[C@@](C)(OC)[C@@](O)(CN(C)CCN(C)C)[C@H](C)O2)[C@H](C)[C@@H](O[C@@H]2O[C@H](C)C[C@H](N(C)C)[C@H]2O)[C@@](C)(OC)C[C@@H](C)C(=O)[C@H](C)[C@H]2C(SCCCn3cnc4c(N)ncnc43)C(=O)O[C@@]21C (stereo partly shown) [Example364] |  |  |  | 0.03 (≈ 0.0274 µM) | 8 (≈ 7.32 µM)
CC[C@H]1OC(=O)[C@H](C)[C@@H](O[C@H]2C[C@@](C)(OC)[C@@](O)(CN(C)CCN(C(C)C)C(C)C)[C@H](C)O2)[C@H](C)[C@@H](O[C@@H]2O[C@H](C)C[C@H](N(C)C)[C@H]2O)[C@@](C)(OC)C[C@@H](C)C(=NO)[C@H](C)[C@H]2N(CCNS(C)(=O)=O)C(=O)O[C@]12C [Example 458] | 4 to 8 (≈ 3.71 to 7.41 µM) | 0.12 to 0.25 (≈ 0.111 to 0.232 µM) |  | 0.06 (≈ 0.0556 µM) | 4 (≈ 3.71 µM)
CC[C@H]1OC(=O)[C@H](C)[C@@H](O[C@H]2C[C@@](C)(OC)[C@@](O)(CN(CC)CCN(CC)CC)[C@H](C)O2)[C@H](C)[C@@H](O[C@@H]2O[C@H](C)C[C@H](N(C)C)[C@H]2O)[C@@](C)(OC)C[C@@H](C)C(=O)[C@H](C)[C@H]2N(CCNS(C)(=O)=O)C(=O)O[C@]12C [Example413] |  |  |  | 0.03 (≈ 0.0286 µM) | 4 (≈ 3.81 µM)
CC[C@H]1OC(=O)[C@H](C)[C@@H](O[C@H]2C[C@@](C)(OC)[C@@](O)(CN(CCOC)CCN(CC)CC)[C@H](C)O2)[C@H](C)[C@@H](O[C@@H]2O[C@H](C)C[C@H](N(C)C)[C@H]2O)[C@@](C)(OC)C[C@@H](C)C(=O)[C@H](C)[C@H]2N(CCNS(C)(=O)=O)C(=O)O[C@]12C [Example443] |  |  |  | 0.03 (≈ 0.0278 µM) | 4 (≈ 3.7 µM)
CC[C@H]1OC(=O)[C@H](C)[C@@H](O[C@H]2C[C@@](C)(OC)[C@@](O)(CN(C)CCN3C4CCC3CC4)[C@H](C)O2)[C@H](C)[C@@H](O[C@@H]2O[C@H](C)C[C@H](N(C)C)[C@H]2O)[C@@](C)(OC)C[C@@H](C)C(=O)[C@H](C)[C@H]2N(CCNS(C)(=O)=O)C(=O)O[C@]12C [Example446] |  |  |  | 0.03 (≈ 0.0283 µM) | 4 (≈ 3.77 µM)
CC[C@H]1OC(=O)[C@H](C)[C@@H](O[C@H]2C[C@@](C)(OC)[C@@](O)(CN(C)CCN(CC)CC)[C@H](C)O2)[C@H](C)[C@@H](O[C@@H]2O[C@H](C)C[C@H](N(C)C)[C@H]2O)[C@@](C)(OC)C[C@@H](C)C(=O)[C@H](C)[C@H]2NC(=O)O[C@@]21C [Example299] |  |  |  | 0.03 (≈ 0.0328 µM) | 4 (≈ 4.37 µM)

Second part, the molecule after the results:

MIC [1] [µg/mL] | MIC [2] [µg/mL] | MIC [3] [µg/mL] | MIC [4] [µg/mL] | MIC [5] [µg/mL] | SMILES
≤ 2 | 0.12 to 0.25 (≈ 0.115 to 0.239 µM) | ≤ 0.25 |  |  | CC[C@H]1OC(=O)[C@H](C)[C@@H](O[C@H]2C[C@@](C)(OC)[C@@](O)(CN(C)CCN(C)C(C)(C)c3ccccc3OC)[C@H](C)O2)[C@H](C)[C@@H](O[C@@H]2O[C@H](C)C[C@H](N(C)C)[C@H]2O)[C@@](C)(OC)C[C@@H](C)C(=O)[C@H](C)[C@H]2C(C#N)C(=O)O[C@@]21C (stereo partly shown) [Example 363]
≤ 2 | 0.12 to 0.25 (≈ 0.114 to 0.238 µM) | ≤ 0.25 |  |  | CC[C@H]1OC(=O)[C@H](C)[C@@H](O[C@H]2C[C@@](C)(OC)[C@@](O)(CN(C)CCN(C)C(C)(C)c3ccccc3OC)[C@H](C)O2)[C@H](C)[C@@H](O[C@@H]2O[C@H](C)C[C@H](N(C)C)[C@H]2O)[C@@](C)(OC(N)=O)C[C@@H](C)C(=O)[C@H](C)[C@H]2NC(=O)O[C@@]21C [Example 342]
≤ 2 | 0.12 to 0.25 (≈ 0.114 to 0.238 µM) | ≤ 0.25 |  |  | CC[C@H]1OC(=O)[C@H](C)[C@@H](O[C@H]2C[C@@](C)(OC)[C@@](O)(CN(C)CCN(C)C(C)(C)c3ccccc3OC)[C@H](C)O2)[C@H](C)[C@@H](O[C@@H]2O[C@H](C)C[C@H](N(C)C)[C@H]2O)[C@@](C)(OC)C[C@@H](C)[C@@H]2NCCN3C(=O)O[C@@]1(C)[C@H]3[C@@H]2C [Example 340]
≤ 2 | 0.12 to 0.25 (≈ 0.115 to 0.239 µM) | ≤ 0.25 |  |  | CC[C@H]1OC(=O)[C@H](C)[C@@H](O[C@H]2C[C@@](C)(OC)[C@@](O)(CN(C)CCN(C)C(C)(C)c3ccccc3OC)[C@H](C)O2)[C@H](C)[C@@H](O[C@@H]2O[C@H](C)C[C@H](N(C)C)[C@H]2O)[C@@](C)(OC)C[C@@H](C)C2=NCCN3C(=O)O[C@@]1(C)[C@H]3[C@H]2C [Example 338]
 |  |  | 0.06 (≈ 0.0573 µM) | 4 (≈ 3.82 µM) | CC[C@H]1OC(=O)[C@H](C)[C@@H](O[C@H]2C[C@@](C)(OC)[C@@](O)(CN(C)CCN(CC)CC)[C@H](C)O2)[C@H](C)[C@@H](O[C@@H]2O[C@H](C)C[C@H](N(C)C)[C@H]2O)[C@@](C)(OC)C[C@@H](C)C(=O)[C@H](C)[C@H]2N(CC3CCS(=O)(=O)C3)C(=O)O[C@]12C (stereo partly shown) [Example154]
 |  |  | 0.03 (≈ 0.0281 µM) | 2 (≈ 1.88 µM) | CC[C@H]1OC(=O)[C@H](C)[C@@H](O[C@H]2C[C@@](C)(OC)[C@@](O)(CN(C)CCN(C(C)C)C(C)C)[C@H](C)O2)[C@H](C)[C@@H](O[C@@H]2O[C@H](C)C[C@H](N(C)C)[C@H]2O)[C@@](C)(OC)C[C@@H](C)C(=O)[C@H](C)[C@H]2N(CCOS(N)(=O)=O)C(=O)O[C@]12C [Example456]
 |  |  | 0.06 (≈ 0.0572 µM) | 4 (≈ 3.82 µM) | CC[C@H]1OC(=O)[C@H](C)[C@@H](O[C@H]2C[C@@](C)(OC)[C@@](O)(CN(C)CCN(C)C(C)(C)c3ccccc3OC)[C@H](C)O2)[C@H](C)[C@@H](O[C@@H]2O[C@H](C)C[C@H](N(C)C)[C@H]2O)[C@@](C)(OC)C[C@@H](C)[C@@H]2NCCN3C(=O)O[C@@]1(C)[C@H]3[C@@H]2C [Example340]
≤ 2 | 0.12 to 0.25 (≈ 0.116 to 0.242 µM) | ≤ 0.25 |  |  | CC[C@H]1OC(=O)[C@H](C)[C@@H](O[C@H]2C[C@@](C)(OC)[C@@](O)(CN(C)CCN(C)C(C)(C)c3ccccc3OC)[C@H](C)O2)[C@H](C)[C@@H](O[C@@H]2O[C@H](C)C[C@H](N(C)C)[C@H]2O)[C@@]2(C)C[C@@H](C)C3(NCCN4C(=O)O[C@@]1(C)[C@H]4[C@H]3C)O2 [Example 341]

Source: patent US9139609B2, “C-4″ position substituted macrolide derivative” (priority 2011, dated 2015)
